Source: ChEMBL document CHEMBL5042535, “Structure-Based Design and Synthesis of N-Substituted 3-Amino-β-Carboline Derivatives as Potent αβ-Tubulin Degradation Agents” (J Med Chem, 2022)

How the values were obtained:
Assay type in all cases: functional, cell-based
[1] = test system: MCF7; assay: Antiproliferative activity against human MCF7 cells assessed as reduction in cell viability measured after 24 hrs by MTT assay; conditions: MCF7, 24 h
[2] = test system: HeLa; assay: Antiproliferative activity against human HeLa cells assessed as reduction in cell viability measured after 24 hrs by MTT assay
[3] = test system: Raji; assay: Antiproliferative activity against human Raji cells assessed as reduction in cell viability measured after 24 hrs by MTT assay
[4] = test system: NCI-H460; assay: Antiproliferative activity against human NCI-H460 cells assessed as reduction in cell viability measured after 24 hrs by MTT assay; conditions: NCI-H460, 24 h
[5] = test system: A2780S; assay: Antiproliferative activity against human A2780S cells assessed as reduction in cell viability measured after 24 hrs by MTT assay

IC50 [1]	IC50 [2]	IC50 [3]	IC50 [4]	IC50 [5]	SMILES
> 500 nM	> 500 nM	> 500 nM	> 500 nM	> 500 nM	CC(C)CCOc1cccc(CNc2cc3c(cn2)[nH]c2ccccc23)c1
68 nM	81 nM	54 nM	47 nM	85 nM	FC(F)(F)c1ccc(Oc2cccc(CNc3cc4c(cn3)[nH]c3ccccc34)c2)cc1
> 500 nM	> 500 nM	> 500 nM	> 500 nM	> 500 nM	CC(C)Oc1cccc(CNc2cc3c(cn2)[nH]c2ccccc23)c1
